Earlier results in PubChem BioAssay AID1259409 (Chemical Carcinogenesis Research Information System (CCRIS), 2018).

System: rodent chemically induced tumor inhibition, incidence and multiplicity
Assay: CCRIS tumor inhibitor studies
Conditions: Species: MOUSE

CC(C)c1cc(C(=O)O)c([O-])c(C(C)C)c1.CC(C)c1cc(C(=O)O)c([O-])c(C(C)C)c1.[Cu+2]
tumour outcome (control, treated, inhibition, significance) (Carcinogen: 7,12-DIMETHYLBENZ[A]ANTHRACENE, 57-97-6, Dose [Inhibitor]: 500 NMOL IN 0.2 ML ACETONE APPLIED ONCE TO DORSAL SKIN 15 MIN PRIOR TO CARCINOGEN DOSE (STUDY DURATION: 20 WK), Route [Inhibitor]: DERMAL, Strain/Sex: SENCAR/FEMALE, Target Tissue: Type of Lesion: SKIN: PAPILLOMA, Dose [Carcinogen]: 10 NMOL IN 0.2 ML ACETONE ONCE): 100%, 100%, 0%, not significant
tumour outcome (control, treated, inhibition, significance) (Carcinogen: 7,12-DIMETHYLBENZ[A]ANTHRACENE, 57-97-6, Dose [Inhibitor]: 1000 NMOL IN 0.2 ML ACETONE APPLIED ONCE TO DORSAL SKIN 15 MIN PRIOR TO CARCINOGEN DOSE (STUDY DURATION: 20 WK), Route [Inhibitor]: DERMAL, Strain/Sex: SENCAR/FEMALE, Target Tissue: Type of Lesion: SKIN: PAPILLOMA, Dose [Carcinogen]: 10 NMOL IN 0.2 ML ACETONE ONCE): 100%, 100%, 0%, not significant
tumour outcome (control, treated, inhibition, significance) (Carcinogen: 7,12-DIMETHYLBENZ[A]ANTHRACENE, 57-97-6, Dose [Inhibitor]: 2000 NMOL IN 0.2 ML ACETONE APPLIED ONCE TO DORSAL SKIN 15 MIN PRIOR TO CARCINOGEN DOSE (STUDY DURATION: 20 WK), Route [Inhibitor]: DERMAL, Strain/Sex: SENCAR/FEMALE, Target Tissue: Type of Lesion: SKIN: PAPILLOMA, Dose [Carcinogen]: 10 NMOL IN 0.2 ML ACETONE ONCE): 100%, 100%, 0%, not significant
tumour outcome (control, treated, inhibition, significance) (Carcinogen: BENZO[A]PYRENE, 50-32-8, Dose [Inhibitor]: 100 NMOL IN 0.2 ML ACETONE APPLIED ONCE TO DORSAL SKIN 15 MIN PRIOR TO CARCINOGEN DOSE (STUDY DURATION: 20 WK), Route [Inhibitor]: DERMAL, Strain/Sex: SENCAR/FEMALE, Target Tissue: Type of Lesion: SKIN: PAPILLOMA, Dose [Carcinogen]: 200 NMOL IN 0.2 ML ACETONE ONCE): 97%, 93%, 4%, not calculated
tumour outcome (control, treated, inhibition, significance) (Carcinogen: BENZO[A]PYRENE, 50-32-8, Dose [Inhibitor]: 500 NMOL IN 0.2 ML ACETONE APPLIED ONCE TO DORSAL SKIN 15 MIN PRIOR TO CARCINOGEN DOSE (STUDY DURATION: 20 WK), Route [Inhibitor]: DERMAL, Strain/Sex: SENCAR/FEMALE, Target Tissue: Type of Lesion: SKIN: PAPILLOMA, Dose [Carcinogen]: 200 NMOL IN 0.2 ML ACETONE ONCE): 97%, 93%, 4%, not calculated
tumour outcome (control, treated, inhibition, significance) (Carcinogen: BENZO[A]PYRENE, 50-32-8, Dose [Inhibitor]: 1000 NMOL IN 0.2 ML ACETONE APPLIED ONCE TO DORSAL SKIN 15 MIN PRIOR TO CARCINOGEN DOSE (STUDY DURATION: 20 WK), Route [Inhibitor]: DERMAL, Strain/Sex: SENCAR/FEMALE, Target Tissue: Type of Lesion: SKIN: PAPILLOMA, Dose [Carcinogen]: 200 NMOL IN 0.2 ML ACETONE ONCE): 97%, 100%, -3%, not calculated
tumour outcome (control, treated, inhibition, significance) (Carcinogen: BENZO[A]PYRENE, 50-32-8, Dose [Inhibitor]: 2000 NMOL IN 0.2 ML ACETONE APPLIED ONCE TO DORSAL SKIN 15 MIN PRIOR TO CARCINOGEN DOSE (STUDY DURATION: 20 WK), Route [Inhibitor]: DERMAL, Strain/Sex: SENCAR/FEMALE, Target Tissue: Type of Lesion: SKIN: PAPILLOMA, Dose [Carcinogen]: 200 NMOL IN 0.2 ML ACETONE ONCE): 97%, 90%, 7%, not calculated
tumour outcome (control, treated, inhibition, significance) (Carcinogen: BENZO[A]PYRENE, 50-32-8, Dose [Inhibitor]: 4000 NMOL IN 0.2 ML ACETONE APPLIED ONCE TO DORSAL SKIN 15 MIN PRIOR TO CARCINOGEN DOSE (STUDY DURATION: 20 WK), Route [Inhibitor]: DERMAL, Strain/Sex: SENCAR/FEMALE, Target Tissue: Type of Lesion: SKIN: PAPILLOMA, Dose [Carcinogen]: 200 NMOL IN 0.2 ML ACETONE ONCE): 97%, 96%, 0.3%, not calculated

CC1=C[C@H]2O[C@@H]3[C@H](O)[C@@H](O)[C@](C)([C@@]2(CO)[C@H](O)C1=O)[C@]31CO1
tumour outcome (control, treated, inhibition, significance) (Dose [Inhibitor]: 0, 6 PPM IN DIET BEGINNING 6 WK POST CARCINOGEN DOSE AND CONTINUING FOR 65 WK (STUDY DURATION: 65 WK), Route [Inhibitor]: ORAL, Strain/Sex: B6C3F1/FEMALE, Target Tissue: Type of Lesion: LIVER: TUMOR, Dose [Carcinogen]: 6 MG/KG ONCE, Promoter: NONE USED): 8/26 (31%), 3/15 (20%), 35%, not significant
tumour outcome (control, treated, inhibition, significance) (Dose [Inhibitor]: 0, 6 PPM IN PELLET DIET FOR 1 YR BEGINNING 7 WK POST CARCINOGEN (STUDY DURATION: 60 WK), Route [Inhibitor]: ORAL, Strain/Sex: B6C3F1/FEMALE, Target Tissue: Type of Lesion: LIVER: HEPATOCELLULAR ADENOMA, Dose [Carcinogen]: 6 MG/KG ONCE): 6/26 (23%), 1/15 (7%), 70%, not calculated
tumour outcome (control, treated, inhibition, significance) (Dose [Inhibitor]: 0, 6 PPM IN PELLET DIET FOR 1 YR BEGINNING 7 WK POST CARCINOGEN (STUDY DURATION: 60 WK), Route [Inhibitor]: ORAL, Strain/Sex: B6C3F1/FEMALE, Target Tissue: Type of Lesion: LIVER: HEPATOCELLULAR TUMOR, Dose [Carcinogen]: 6 MG/KG ONCE): 8/26 (31%), 3/15 (20%), 35%, not significant
tumour outcome (control, treated, inhibition, significance) (Dose [Inhibitor]: 0, 12 PPM IN DIET BEGINNING 6 WK POST CARCINOGEN DOSE AND CONTINUING FOR 65 WK (STUDY DURATION: 65 WK), Route [Inhibitor]: ORAL, Strain/Sex: B6C3F1/FEMALE, Target Tissue: Type of Lesion: LIVER: TUMOR, Dose [Carcinogen]: 6 MG/KG ONCE, Promoter: NONE USED): 8/26 (31%), 0/19 (0%), 100%, p<0.01
tumour outcome (control, treated, inhibition, significance) (Dose [Inhibitor]: 0, 12 PPM IN DIET BEGINNING 6 WK POST CARCINOGEN DOSE AND CONTINUING FOR 65 WK (STUDY DURATION: 65 WK), Route [Inhibitor]: ORAL, Strain/Sex: B6C3F1/MALE, Target Tissue: Type of Lesion: LIVER: TUMOR, Dose [Carcinogen]: 6 MG/KG ONCE, Promoter: NONE USED): 19/19 (100%), 18/18 (100%), 0%, not significant
tumour outcome (control, treated, inhibition, significance) (Dose [Inhibitor]: 0, 12 PPM IN DIET FOR 1 YR BEGINNING 7 WK POST CARCINOGEN (STUDY DURATION: 60 WK), Route [Inhibitor]: ORAL, Strain/Sex: B6C3F1/MALE, Target Tissue: Type of Lesion: LIVER: HEPATOCELLULAR CARCINOMA, Dose [Carcinogen]: 6 MG/KG ONCE): 17/19 (89%), 15/18 (83%), 7%, not calculated
tumour outcome (control, treated, inhibition, significance) (Dose [Inhibitor]: 0, 12 PPM IN PELLET DIET FOR 1 YR BEGINNING 7 WK POST CARCINOGEN (STUDY DURATION : 60 WK), Route [Inhibitor]: ORAL, Strain/Sex: B6C3F1/FEMALE, Target Tissue: Type of Lesion: LIVER: HEPATOCELLULAR ADENOMA, Dose [Carcinogen]: 6 MG/KG ONCE): 6/26 (23%), 0/19 (0%), 100%, not calculated
tumour outcome (control, treated, inhibition, significance) (Dose [Inhibitor]: 0, 12 PPM IN PELLET DIET FOR 1 YR BEGINNING 7 WK POST CARCINOGEN (STUDY DURATION : 60 WK), Route [Inhibitor]: ORAL, Strain/Sex: B6C3F1/FEMALE, Target Tissue: Type of Lesion: LIVER: HEPATOCELLULAR CARCINOMA, Dose [Carcinogen]: 6 MG/KG ONCE): 1/26 (4%), 0/19 (0%), 100%, not calculated
tumour outcome (control, treated, inhibition, significance) (Dose [Inhibitor]: 0, 12 PPM IN PELLET DIET FOR 1 YR BEGINNING 7 WK POST CARCINOGEN (STUDY DURATION : 60 WK), Route [Inhibitor]: ORAL, Strain/Sex: B6C3F1/FEMALE, Target Tissue: Type of Lesion: LIVER: HEPATOCELLULAR TUMOR, Dose [Carcinogen]: 6 MG/KG ONCE): 8/26 (31%), 0/19 (0%), 100%, p<0.01
tumour outcome (control, treated, inhibition, significance) (Dose [Inhibitor]: 0, 12 PPM IN PELLET FOR 1 YR BEGINNING 7 WK POST CARCINOGEN (STUDY DURATION: 60 WK), Route [Inhibitor]: ORAL, Strain/Sex: B6C3F1/MALE, Target Tissue: Type of Lesion: LIVER: HEPATOCELLULAR TUMOR, Dose [Carcinogen]: 6 MG/KG ONCE): 19/19 (100%), 18/18 (100%), 0%, not significant

CCCCNC(=O)\C=C(C)/C=C/C=C(C)/C=C/C1=C(C)CCCC1(C)C
tumour outcome (control, treated, inhibition, significance) (Carcinogen: N-BUTYL-N-(4-HYDROXYBUTYL)NITROSAMINE, 3817-11-6, Dose [Inhibitor]: 1.5 MMOL/KG IN DIET FOR 133 D STARTING 1 WK AFTER THE LAST CARCINOGEN DOSE ( STUDY DURATION: 190 D), Route [Inhibitor]: ORAL, Strain/Sex: BDF/MALE, Target Tissue: Type of Lesion: URINARY BLADDER: TRANSITIONAL CELL CARCINOMA, Dose [Carcinogen]: 7.5 MG 1/WK FOR 8 WK, Promoter: NONE USED): 21/100 (21%), 19/97 (20%), 5%, not significant
